Data taken from US20260184663A1, “INDENE COMPOUNDS, PHARMACEUTICAL COMPOSITIONS THEREOF, AND THEIR THERAPEUTIC APPLICATIONS” (NucMito Pharmaceuticals co. Ltd., priority 2022, published 2026).

Legend:
Format in all cases: cell-based
HeLa (cervical cancer) = test: Antiproliferative activity (CCK-8 cell viability), HeLa; conditions: Homo sapiens, 72 h, read-out: Antiproliferative activity in cancerous cells, HELA (inhibition of cell growth); for inhibition at 3.3 µM: Compound concentration: 3.3 μM; for inhibition at 10 µM: Compound concentration: 10 μM
Procedure, shortened: (§1)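 Cells were seeded at 2,000-5,000/well (HeLa in MEM, HepG2 and SW480 in DMEM, A549 in F-12K, all with 10% FBS) and treated with compound at 3.3, 10 or 30 μM for 72 h at 37° C. CCK-8 was added for 4 h, absorbance was read at 450 nm, and viability was expressed relative to DMSO-treated wells.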

[1] = test system: B16F10 (malignant melanoma); test: Antiproliferative activity (CCK-8 cell viability), B16F10; conditions: Mus musculus, 72 h, read-out: Antiproliferative activity in cancerous cells, B16F10 (inhibition of cell growth); for inhibition at 3.3 µM: B16-F10, Compound concentration: 3.3 μM; for inhibition at 10 µM: B16-F10, Compound concentration: 10 μM
Procedure, shortened: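 Attached B16F10 cells in 96-well plates were incubated with compound at 37° C for 72 h, followed by 10 μL CCK-8 reagent per well and a further 4 h incubation. A multi-well plate reader measured absorbance at 450 nm. Percent viability across replicates was calculated against DMSO vehicle-treated cells.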

[2] = test system: MDA-MB-231 (breast cancer); test: Antiproliferative activity (CCK-8 cell viability), MDA-MB-231; conditions: Homo sapiens, 72 h, read-out: Antiproliferative activity in cancerous cells, MDA-MB-231 (inhibition of cell growth); for inhibition at 3.3 µM: Compound concentration: 3.3 μM; for inhibition at 10 µM: Compound concentration: 10 μM
Procedure, shortened: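 In this CCK-8 viability assay, MDA-MB-231 cells maintained in Dulbecco's modified Eagle's medium containing 10% fetal bovine serum were placed in 96-well plates (2,000-5,000 cells/well) and treated with compound for 72 h at 37° C. A 4 h incubation with 10 μL CCK-8 followed, plates were read at 450 nm, and viability was expressed against DMSO vehicle wells across replicates.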

[3] = test system: A549 (lung adenocarcinoma); test: Antiproliferative activity (CCK-8 cell viability), A549; conditions: Homo sapiens, 72 h, read-out: Antiproliferative activity in cancerous cells, A549 (inhibition of cell growth); for inhibition at 3.3 µM: Compound concentration: 3.3 μM; for inhibition at 10 µM: Compound concentration: 10 μM
Procedure, shortened: as §1

HepG2 (liver cancer) = test: Antiproliferative activity (CCK-8 cell viability), HepG2; conditions: Homo sapiens, 72 h, read-out: Antiproliferative activity in cancerous cells, HepG2 (inhibition of cell growth); for inhibition at 3.3 µM: Compound concentration: 3.3 μM; for inhibition at 10 µM: Compound concentration: 10 μM
Procedure, shortened: as §1

SW480 (colon cancer) = test: Antiproliferative activity (CCK-8 cell viability), SW480; conditions: Homo sapiens, 72 h, read-out: Antiproliferative activity in cancerous cells, SW480 (inhibition of cell growth); for inhibition at 3.3 µM: Compound concentration: 3.3 μM; for inhibition at 10 µM: Compound concentration: 10 μM
Procedure, shortened: as §1

[4] = test system: A431 (epidermoid carcinoma); test: Antiproliferative activity (CCK-8 cell viability), A431; conditions: Homo sapiens, 72 h, read-out: Antiproliferative activity in cancerous cells, A431 (inhibition of cell growth); for inhibition at 3.3 µM: A-431, Compound concentration: 3.3 μM; for inhibition at 10 µM: A-431, Compound concentration: 10 μM
Procedure, shortened: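 Cell viability of compound-treated A431 cells was measured with a Cell Counting Kit-8. Each well received 10 μL of CCK-8 after 72 h of compound exposure, followed by 4 h incubation at 37° C. and a 450 nm plate-reader measurement. Percent viability was calculated relative to DMSO controls across replicates.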

CC1=C(CC(=O)O)c2cc(F)ccc2/C1=C\c1ccc(Oc2ccc(Cl)c(Cl)c2)cc1 [C49, (Z)-2-(1-(4-(3,4-Dichlorophenoxy)benzylidene)-5-fluoro-2-methyl-1H-inden-3-yl)acetic acid]
≥ 50%: inhibition at 3.3 µM (HeLa (cervical cancer)) | inhibition at 10 µM (HeLa (cervical cancer)) | inhibition at 10 µM [1] | inhibition at 10 µM [2] | inhibition at 10 µM [3] | inhibition at 10 µM (HepG2 (liver cancer)) | inhibition at 10 µM (SW480 (colon cancer)) | inhibition at 3.3 µM [4] | inhibition at 10 µM [4]
< 30%: inhibition at 3.3 µM [1] | inhibition at 3.3 µM [2] | inhibition at 3.3 µM [3] | inhibition at 3.3 µM (HepG2 (liver cancer))
30 to 50%: inhibition at 3.3 µM (SW480 (colon cancer))

CC1=C(CC(=O)O)c2cc(F)ccc2/C1=C\c1cccc(C(=O)Nc2ccc(F)cc2)c1 [B69, (Z)-2-(5-Fluoro-1-(3-((4-fluorophenyl)carbamoyl)benzylidene)-2-methyl-1H-inden-3-yl)acetic acid]
< 30%: inhibition at 3.3 µM [3] | inhibition at 3.3 µM [4]
30 to 50%: inhibition at 3.3 µM [2] | inhibition at 3.3 µM (HepG2 (liver cancer)) | inhibition at 3.3 µM (SW480 (colon cancer))
≥ 50%: inhibition at 3.3 µM (HeLa (cervical cancer)) | inhibition at 10 µM (HeLa (cervical cancer)) | inhibition at 3.3 µM [1] | inhibition at 10 µM [1] | inhibition at 10 µM [2] | inhibition at 10 µM [3] | inhibition at 10 µM (HepG2 (liver cancer)) | inhibition at 10 µM (SW480 (colon cancer)) | inhibition at 10 µM [4]

COc1ccc(S(=O)(=O)Cc2ccc(/C=C3/C(C)=C(CC(=O)O)c4cc(F)ccc43)cc2)cc1 [B46, (Z)-2-(5-Fluoro-1-(4-(((4-methoxyphenyl)sulfonyl)methyl)benzylidene)-2-methyl-1H-inden-3-yl)acetic acid]
< 30%: inhibition at 3.3 µM (HeLa (cervical cancer)) | inhibition at 3.3 µM [1] | inhibition at 3.3 µM [2] | inhibition at 3.3 µM [3] | inhibition at 10 µM [3]
≥ 50%: inhibition at 10 µM (HeLa (cervical cancer)) | inhibition at 10 µM [1] | inhibition at 10 µM [4]
30 to 50%: inhibition at 10 µM [2] | inhibition at 3.3 µM (HepG2 (liver cancer)) | inhibition at 10 µM (HepG2 (liver cancer)) | inhibition at 3.3 µM (SW480 (colon cancer)) | inhibition at 10 µM (SW480 (colon cancer)) | inhibition at 3.3 µM [4]

CC1=C(CC(=O)O)c2cc(F)ccc2/C1=C\c1ccc(CN(CCc2ccccc2)c2ccccc2)cc1 [B19, (Z)-2-(5-Fluoro-2-methyl-1-(4-((phenethyl(phenyl)amino)methyl)benzylidene)-1H-inden-3-yl)acetic acid]
≥ 50%: inhibition at 10 µM (HeLa (cervical cancer)) | inhibition at 10 µM [1] | inhibition at 3.3 µM [2] | inhibition at 10 µM [2] | inhibition at 3.3 µM [3] | inhibition at 10 µM [3] | inhibition at 10 µM (HepG2 (liver cancer)) | inhibition at 10 µM (SW480 (colon cancer)) | inhibition at 10 µM [4]
< 30%: inhibition at 3.3 µM [1] | inhibition at 3.3 µM (HepG2 (liver cancer)) | inhibition at 3.3 µM [4]
30 to 50%: inhibition at 3.3 µM (HeLa (cervical cancer)) | inhibition at 3.3 µM (SW480 (colon cancer))

CC1=C(CC(=O)O)c2cc(F)ccc2/C1=C\c1ccc(Oc2ccc(Cl)cc2)cc1O [C80, (Z)-2-(1-(4-(4-Chlorophenoxy)-2-hydroxybenzylidene)-5-fluoro-2-methyl-1H-inden-3-yl)acetic acid]
≥ 50%: inhibition at 10 µM (HeLa (cervical cancer)) | inhibition at 10 µM [1] | inhibition at 3.3 µM [2] | inhibition at 10 µM [2] | inhibition at 10 µM [3] | inhibition at 10 µM (HepG2 (liver cancer)) | inhibition at 10 µM (SW480 (colon cancer)) | inhibition at 10 µM [4]
< 30%: inhibition at 3.3 µM (HeLa (cervical cancer)) | inhibition at 3.3 µM (HepG2 (liver cancer)) | inhibition at 3.3 µM (SW480 (colon cancer))
30 to 50%: inhibition at 3.3 µM [1] | inhibition at 3.3 µM [3] | inhibition at 3.3 µM [4]

CC1=C(CC(=O)O)c2cc(F)ccc2/C1=C\c1ccc(OCc2cc3ccccc3s2)cc1 [B70, (Z)-2-(1-(4-(Benzo[b]thiophen-2-ylmethoxy)benzylidene)-5-fluoro-2-methyl-1H-inden-3-yl)acetic acid]
30 to 50%: inhibition at 3.3 µM [2] | inhibition at 3.3 µM (SW480 (colon cancer)) | inhibition at 3.3 µM [4] | inhibition at 10 µM [4]
≥ 50%: inhibition at 3.3 µM (HeLa (cervical cancer)) | inhibition at 10 µM (HeLa (cervical cancer)) | inhibition at 3.3 µM [1] | inhibition at 10 µM [1] | inhibition at 10 µM [2] | inhibition at 3.3 µM [3] | inhibition at 10 µM [3] | inhibition at 3.3 µM (HepG2 (liver cancer)) | inhibition at 10 µM (HepG2 (liver cancer)) | inhibition at 10 µM (SW480 (colon cancer))

CC1=C(CC(=O)O)c2cc(F)ccc2/C1=C\c1ccc(CCCCc2ccc(F)cc2)cc1 [B116, (Z)-2-(5-Fluoro-1-(4-(4-(4-fluorophenyl)butyl)benzylidene)-2-methyl-1H-inden-3-yl)acetic acid]
< 30%: inhibition at 3.3 µM [2] | inhibition at 10 µM [2] | inhibition at 3.3 µM (SW480 (colon cancer))
30 to 50%: inhibition at 3.3 µM [1] | inhibition at 10 µM [1] | inhibition at 3.3 µM [3]
≥ 50%: inhibition at 3.3 µM (HeLa (cervical cancer)) | inhibition at 10 µM (HeLa (cervical cancer)) | inhibition at 10 µM [3] | inhibition at 3.3 µM (HepG2 (liver cancer)) | inhibition at 10 µM (HepG2 (liver cancer)) | inhibition at 10 µM (SW480 (colon cancer)) | inhibition at 3.3 µM [4] | inhibition at 10 µM [4]

CC1=C(CC(=O)O)c2cc(F)ccc2/C1=C/c1ccc(CO)cc1 [E40, (E)-2-(5-Fluoro-1-(4-(hydroxymethyl)benzylidene)-2-methyl-1H-inden-3-yl)acetic acid]
30 to 50%: inhibition at 30 µM ([1]; B16-F10, Compound concentration: 30 μM)
< 30%: inhibition at 3.3 µM (HeLa (cervical cancer)) | inhibition at 10 µM (HeLa (cervical cancer)) | inhibition at 3.3 µM [1] | inhibition at 10 µM [1] | inhibition at 3.3 µM [2] | inhibition at 3.3 µM [3] | inhibition at 3.3 µM (HepG2 (liver cancer)) | inhibition at 10 µM (HepG2 (liver cancer)) | inhibition at 30 µM (HepG2 (liver cancer); Compound concentration: 30 μM) | inhibition at 3.3 µM (SW480 (colon cancer)) | inhibition at 3.3 µM [4]
≥ 50%: inhibition at 30 µM (HeLa (cervical cancer); Compound concentration: 30 μM) | inhibition at 10 µM [2] | inhibition at 30 µM ([2]; Compound concentration: 30 μM) | inhibition at 10 µM [3] | inhibition at 30 µM ([3]; Compound concentration: 30 μM) | inhibition at 10 µM (SW480 (colon cancer)) | inhibition at 30 µM (SW480 (colon cancer); Compound concentration: 30 μM) | inhibition at 10 µM [4] | inhibition at 30 µM ([4]; A-431, Compound concentration: 30 μM)

CC1=C(CC(=O)O)c2cc(F)ccc2/C1=C\c1cccc(S(=O)(=O)c2ccc(F)cc2)c1 [C44, (Z)-2-(5-Fluoro-1-(3-((4-fluorophenyl)sulfonyl)benzylidene)-2-methyl-1H-inden-3-yl)acetic acid]
≥ 50%: inhibition at 10 µM (HeLa (cervical cancer)) | inhibition at 3.3 µM [2] | inhibition at 10 µM [2] | inhibition at 10 µM (HepG2 (liver cancer)) | inhibition at 3.3 µM [4]
< 30%: inhibition at 3.3 µM (HeLa (cervical cancer)) | inhibition at 3.3 µM [1] | inhibition at 3.3 µM [3] | inhibition at 3.3 µM (HepG2 (liver cancer)) | inhibition at 3.3 µM (SW480 (colon cancer))
30 to 50%: inhibition at 10 µM [1] | inhibition at 10 µM [3] | inhibition at 10 µM (SW480 (colon cancer)) | inhibition at 10 µM [4]
